Our source for the EC50 values is US20160271263A1 (Novo Nordisk A/S, priority 2010, published 2016).

Structures are written as SMILES. Numbered stars: 1 amine (or outer) side, 2 acyl side, 3 side chain; on linkers, the order of the positions; unused ones are H or OH. Side chains are listed from the residue outwards. Peptide text beside a SMILES is read from it. * marks the point of attachment. C18 diacid = O=C(O)CCCCCCCCCCCCCCCCC(=O)*; γGlu = O=C(O)[C@H](CCC(=O)[*:2])N[*:1]; AEEA = NCCOCCOCC(=O)O

Sequence of glucagon receptor (P47871 26-477): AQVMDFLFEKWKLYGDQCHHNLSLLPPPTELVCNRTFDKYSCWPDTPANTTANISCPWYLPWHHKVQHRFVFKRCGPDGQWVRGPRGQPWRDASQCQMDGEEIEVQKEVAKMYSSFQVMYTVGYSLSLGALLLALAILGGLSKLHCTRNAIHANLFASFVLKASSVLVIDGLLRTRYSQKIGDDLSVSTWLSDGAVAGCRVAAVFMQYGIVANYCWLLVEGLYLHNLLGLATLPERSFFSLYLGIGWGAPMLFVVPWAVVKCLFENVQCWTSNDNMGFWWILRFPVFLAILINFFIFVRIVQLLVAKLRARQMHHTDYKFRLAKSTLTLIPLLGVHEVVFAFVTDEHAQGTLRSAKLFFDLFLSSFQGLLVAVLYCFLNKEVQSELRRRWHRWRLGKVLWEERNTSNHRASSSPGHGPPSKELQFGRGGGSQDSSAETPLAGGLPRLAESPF

The assay addresses glucagon receptor (Homo sapiens, UniProt P47871). Put plainly: cell-based.
Procedure: The cells (14000 per well) were incubated (37° C., 5% CO2) overnight in 384-well plates. Next day the cells were loaded with a calcium responsive dye that only distributed into the cytoplasm. Probenecid, an inhibitor of the organic anion transporter, was added to prevent the dye from leaving the cell. A PDE inhibitor was added to prevent formatted cAMP from being degraded. […] End point data were collected after 6 minutes. An increase in intracellular cAMP was proportional to an increased in calcium concentrations in the cytoplasm. […] EC50-values were calculated in Prism5.
`CC(C)C[C@H](NC(=O)[C@H](CC(C)C)NC(=O)[C@H](Cc1c[nH]c2ccccc12)NC(=O)[C@H](CCC(N)=O)NC(=O)[C@@H](NC(=O)[C@H](Cc1ccccc1)NC(=O)[C@H](CCC(=O)O)NC(=O)[C@H](CCC(N)=O)NC(=O)[C@H](C)NC(=O)[C@H](CCCNC(=N)N)NC(=O)[C@H](CCCCN)NC(=O)[C@H](CO)NC(=O)[C@H](CC(=O)O)NC(=O)[C@H](CC(C)C)NC(=O)[C@H](Cc1ccc(O)cc1)NC(=O)[C@H](CCCCN)NC(=O)[C@H](CO)NC(=O)[C@H](Cc1ccc(O)cc1)NC(=O)[C@H](CC(=O)O)NC(=O)[C@H](CO)NC(=O)[C@@H](NC(=O)[C@H](Cc1ccccc1)NC(=O)[C@@H](NC(=O)CNC(=O)[C@H](CCC(N)=O)NC(=O)[C@H](CO)NC(=O)[C@@H](N)Cc1c[nH]cn1)[C@@H](C)O)[C@@H](C)O)C(C)C)C(=O)N[C@@H](CC(N)=O)C(=O)N[C@@H](CCCCNC(=O)COCCOCCNC(=O)COCCOCCNC(=O)CC[C@H](NC(=O)CCCCCCCCCCCCCCCCC(=O)O)C(=O)O)C(N)=O` [Example 46, N^ε29 ([2-[2-[2-[[2-[2-[2-[[(4S)-5-hydroxy-4-[(18-hydroxy-18-oxooctadecanoyl)amino]-5-oxopentanoyl]amino]ethoxy]ethoxy]acetyl]amino]ethoxy]ethoxy]acetyl]) [Lys^17, Glu^21, Leu^27, Lys^29] Glucagon peptide amide] (H-HSQGTFTSDYSKYLDSKRAQEFVQWLLNK([AEEA-AEEA-γGlu-C18 diacid])-NH2; N-terminus assumed) returned an EC50 of 0.003 nM. Then `CC(C)C[C@H](NC(=O)[C@H](Cc1ccc(O)cc1)NC(=O)[C@H](CCCNC(=N)N)NC(=O)[C@H](CO)NC(=O)[C@H](Cc1ccc(O)cc1)NC(=O)[C@H](CC(=O)O)NC(=O)[C@H](CO)NC(=O)[C@@H](NC(=O)[C@H](Cc1ccccc1)NC(=O)[C@@H](NC(=O)CNC(=O)[C@H](CCC(N)=O)NC(=O)[C@H](CO)NC(=O)[C@@H](N)Cc1c[nH]cn1)[C@@H](C)O)[C@@H](C)O)C(=O)N[C@@H](CC(=O)O)C(=O)N[C@@H](CO)C(=O)N[C@@H](CCCNC(=N)N)C(=O)N[C@@H](CCCNC(=N)N)C(=O)N[C@@H](C)C(=O)N[C@@H](CCC(N)=O)C(=O)N[C@@H](CC(=O)O)C(=O)N[C@@H](Cc1ccccc1)C(=O)N[C@H](C(=O)N[C@@H](CCCCNC(=O)COCCOCCNC(=O)COCCOCCNC(=O)CC[C@H](NC(=O)CCCCCCCCCCCCCCCCC(=O)O)C(=O)O)C(=O)N[C@@H](Cc1c[nH]c2ccccc12)C(=O)N[C@@H](CC(C)C)C(=O)N[C@@H](CC(C)C)C(=O)N[C@@H](CC(N)=O)C(=O)N[C@H](C(=O)O)[C@@H](C)O)C(C)C` [Example 47] (H-HSQGTFTSDYSRYLDSRRAQDFVK([AEEA-AEEA-γGlu-C18 diacid])WLLNT-OH; N-terminus and C-terminus assumed), with 0.109 nM. Then `CC(C)C[C@H](NC(=O)[C@H](Cc1ccc(O)cc1)NC(=O)[C@H](CCCCN)NC(=O)[C@H](CO)NC(=O)[C@H](Cc1ccc(O)cc1)NC(=O)[C@H](CC(=O)O)NC(=O)[C@H](CO)NC(=O)[C@@H](NC(=O)[C@H](Cc1ccccc1)NC(=O)[C@@H](NC(=O)CNC(=O)[C@H](CCC(N)=O)NC(=O)[C@H](CO)NC(=O)[C@@H](N)Cc1c[nH]cn1)[C@@H](C)O)[C@@H](C)O)C(=O)N[C@@H](CC(=O)O)C(=O)N[C@@H](CO)C(=O)N[C@@H](CCCNC(=N)N)C(=O)N[C@@H](CCCNC(=N)N)C(=O)N[C@@H](C)C(=O)N[C@@H](CCC(N)=O)C(=O)N[C@@H](CCC(=O)O)C(=O)N[C@@H](Cc1ccccc1)C(=O)N[C@H](C(=O)N[C@@H](CCCCNC(=O)COCCOCCNC(=O)COCCOCCNC(=O)CC[C@H](NC(=O)CCCCCCCCCCCCCCCCC(=O)O)C(=O)O)C(=O)N[C@@H](Cc1c[nH]c2ccccc12)C(=O)N[C@@H](CC(C)C)C(=O)N[C@@H](CC(C)C)C(=O)N[C@@H](CC(N)=O)C(=O)N[C@H](C(=O)O)[C@@H](C)O)C(C)C` [Example 48], with 0.021 nM.
